Test results as given in patent publication EP4755886A1 (Chengdu Chipscreen Pharmaceutical Ltd., priority 2023, dated 2025).

Assays:
wild-type HCT-116 cells = experiment: Cell proliferation (MTS), wild-type HCT-116; type: cell-based; conditions: Homo sapiens, 240 h; wild-type HCT-116, 10 days with compound, MTS reading; read-out: IC50 HCT116 WT
How it was run: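 Wild-type HCT-116 cells were seeded at 100 cells/well in McCoy's 5A/10% FBS. From day 1 they were treated with compound in 3-fold dilutions (initial 20 µM, 8 points) for 10 days at 37° C. Proliferation was read by MTS on day 11, and IC50 was obtained from a four-parameter logistic fit.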

MTAP^-/- HCT-116 cells = experiment: Cell proliferation (MTS), MTAP-/- HCT-116; type: cell-based, human; conditions: for Selectivity: HCT116 WT IC50 relative to HCT116 MTAP-/- IC50; for IC50: Homo sapiens, 240 h, MTAP-/- HCT-116, 10 days with compound, MTS reading, read-out: IC50 HCT116 MTAP-/-
How it was run: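 MTAP-/- (CRISPR/Cas9 biallelic knockout) or wild-type HCT-116 cells seeded at 100 cells/well, treated next day with 8-point 3-fold dilutions (top 20 µM) for 10 days at 37 °C, 5% CO2. Viability read by MTS; IC50 from four-parameter logistic fit of inhibition rate vs log concentration.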

Row | Structure (SMILES) | IC50 (wild-type HCT-116 cells) [µM] | IC50 (MTAP^-/- HCT-116 cells) [µM] | Selectivity (MTAP^-/- HCT-116 cells)
1 | Cc1ccc(C#Cc2ccc3c(c2)OC[C@H]3N(C)C(=O)c2cc3c4c(c(N)nc3cc2Cl)COC4)cn1 [Compound 58A, (S)-4-amino-7-chloro-N-methyl-N-(6-((6-methylpyridin-3-yl)ethynyl)-2,3-dihydrobenzofuran-3-yl)-1,3-dihydrofuro[3,4-c]quinoline-8-carboxamide] | 2.22 | 0.0095 | 234
2 | CN(C(=O)c1cc2c(cc1F)nc(N)c1cnn(C)c12)[C@@H]1COc2cc(C#Cc3ccc4cnn(C)c4c3)ccc21 [Compound 60A, (5)-4-amino-7-fluoro-N,1-dimethyl-N-(6-((1-methyl-1H-indazol-6-yl)ethynyl)-2,3-dihydrobenzofuran-3-yl)-1H-pyrazolo[4,3-c]quinoline-8-carboxamide] | 0.486 | 0.008 | 61
3 | CN(C(=O)c1cc2c3c(c(N)nc2cc1Cl)COC3)[C@@H]1COc2cc(C#Cc3ccc4cnn(C)c4c3)ccc21 [Compound 62A, (S)-4-amino-7-chloro-N-methyl-N-(6-((1-methyl-1H-indazol-6-yl)ethynyl)-2,3-dihydrobenzofuran-3-yl)-1,3-dihydrofuro[3,4-c]quinoline-8-carboxamide] | 1.26 | 0.0159 | 79
4 | CCn1cc(C#Cc2ccc3c(c2)OC[C@H]3N(C)C(=O)c2cc3c4c(c(N)nc3cc2Cl)COC4)cn1 [Compound 69A, (S)-4-amino-7-chloro-N-(6-((1-ethyl-1H-pyrazol-4-yl)ethynyl)-2,3-dihydrobenzof uran-3-yl)-N-methyl-1,3-dihydrofuro[3,4-c]quinoline-8-carboxamide] | 0.864 | 0.005 | 173
5 | Cc1c(C#Cc2ccc3c(c2)OC[C@H]3N(C)C(=O)c2cc3c4c(c(N)nc3cc2Cl)COC4)cnn1C1CC1 [Compound 71A, (S)-4-amino-7-chloro-N-(6-((1-cyclopropyl-5-methyl-1H-pyrazol-4-yl)ethynyl)-2,3-dihydrobenzofuran-3-yl)-N-methyl-1,3-dihydrofuro[3,4-c]quinoline-8-carboxamide] | 0.674 | 0.014 | 48
6 | CN(C(=O)c1cc2c3c(c(N)nc2cc1Cl)COC3)[C@@H]1COc2cc(C#Cc3ccnn3C)ccc21 [Compound 78A, (S)-4-amino-7-chloro-N-methyl-N-(6-((1-methyl-1H-pyrazol-5-yl)ethynyl)-2,3-dihydrobenzofuran-3-yl)-1,3-dihydrofuro[3,4-c]quinoline-8-carboxamide] | 0.512 | 0.0039 | 131
7 | CN(C(=O)c1cc2c3c(c(N)nc2cc1F)COC3)[C@@H]1COc2cc(C#Cc3cnc4n3CCCC4)ccc21 [Compound 80A, (S)-4-amino-7-fluoro-N-methyl-N-(6-((5,6,7,8-tetrahydroimidazo[1,2-a]pyridin-3-yl)ethynyl)-2,3-dihydrobenzofuran-3-yl)-1,3-dihydrofuro [3,4-c] quinoline-8-carbo xamide] | 1.51 | 0.006 | 251
8 | CN(C(=O)c1cc2c3c(c(N)nc2cc1Cl)COC3)C1COCc2cc(C#Cc3cnn(C4CC4)c3)ccc21 (stereo not drawn) [Compound 87, 4-amino-7-chloro-N-(7-((1-cyclopropyl-1H-pyrazol-4-yl)ethynyl)isochroman-4-yl) -N-methyl-1,3-dihydrofuro[3,4-c]quinoline-8-carboxamide] | 0.504 | 0.009 | 56
9 | CN(C(=O)c1cc2c3c(c(N)nc2cc1Cl)COC3)[C@@H]1COc2cc(C#Cc3cnn4c3CCC4)ccc21 [Compound 88A, (S)-4-amino-7-chloro-N-(6-((5,6-dihydro-4H-pyrrolo[1,2-b]pyrazol-3-yl)ethynyl)-2,3-dihydrobenzofuran-3-yl)-N-methyl-1,3-dihydrofuro[3,4-c]quinoline-8-carbox amide] | 0.777 | 0.0045 | 173

Further lines, with some results ahead:

Row | IC50 (wild-type HCT-116 cells) [µM] | IC50 (MTAP^-/- HCT-116 cells) [µM] | Structure (SMILES) | Selectivity (MTAP^-/- HCT-116 cells)
10 | 0.16 | 0.003 | CN(C(=O)c1cc2c(cc1Cl)nc(N)c1cnn(C)c12)[C@@H]1COc2cc(C#Cc3cccnc3F)ccc21 [Compound 56A, (S)-4-amino-7-chloro-N-(6-((2-fluoropyridin-3-yl)ethynyl)-2,3-dihydrobenzofuran-3-yl)-N,1-dimethyl-1H-pyrazolo[4,3-c]quinoline-8-carboxamide] | 53
11 | 0.305 | 0.0046 | Cc1ccc(C#Cc2ccc3c(c2)OC[C@H]3N(C)C(=O)c2cc3c(cc2F)nc(N)c2cnn(C)c23)cn1 [Compound 59A, (S)-4-amino-7-fluoro-N,1-dimethyl-N-(6-((6-methylpyridin-3-yl)ethynyl)-2,3-dihydrobenzofuran-3-yl)-1H-pyrazolo[4,3-c]quinoline-8-carboxamide] | 66
12 | 0.085 | 0.002 | Cc1ccncc1C#Cc1ccc2c(c1)OC[C@H]2N(C)C(=O)c1cc2c(cc1Cl)nc(N)c1cnn(C)c12 [Compound 63A, (S)-4-amino-7-chloro-N,1-dimethyl-N-(6-((4-methylpyridin-3-yl)ethynyl)-2,3-dihydrobenzofuran-3-yl)-1H-pyrazolo[4,3-c]quinoline-8-carboxamide] | 43
13 | 0.141 | 0.002 | Cc1cncc(C#Cc2ccc3c(c2)OC[C@H]3N(C)C(=O)c2cc3c(cc2Cl)nc(N)c2cnn(C)c23)c1 [Compound 65A, (S)-4-amino-7-chloro-N,1-dimethyl-N-(6-((5-methylpyridin-3-yl)ethynyl)-2,3-dihydrobenzofuran-3-yl)-1H-pyrazolo[4,3-c]quinoline-8-carboxamide] | 71
14 | 0.085 | 0.002 | CN(C(=O)c1cc2c(cc1Cl)nc(N)c1cnn(C)c12)[C@@H]1COc2cc(C#Cc3cnn(C(F)F)c3)ccc21 [Compound 67A, (S)-4-amino-7-chloro-N-(6-((1-(difluoromethyl)-1H-pyrazol-4-yl)ethynyl)-2,3-dihydrobenzofuran-3-yl)-N,1-dimethyl-1H-pyrazolo[4,3-c]quinoline-8-carboxamide] | 43
15 | 0.312 | 0.0066 | CN(C(=O)c1cc2c3c(c(N)nc2cc1Cl)COC3)[C@@H]1COc2cc(C#Cc3cn(C)nc3Cl)ccc21 [Compound 68A, (S)-4-amino-7-chloro-N-(6-((3-chloro-1-methyl-1H-pyrazol-4-yl)ethynyl)-2,3-dihydrobenzofuran-3-yl)-N-methyl-1,3-dihydrofuro[3,4-c]quinoline-8-carboxamide] | 47
16 | 0.475 | 0.0036 | CN(C(=O)c1cc2c3c(c(N)nc2cc1Cl)COC3)[C@@H]1COc2cc(C#Cc3cccnc3)ccc21 [Compound 70A, (S)-4-amino-7-chloro-N-methyl-N-(6-(pyridin-3-ylethynyl)-2,3-dihydrobenzofuran-3-yl)-1,3-dihydrofuro[3,4-c]quinoline-8-carboxamide] | 132
17 | 0.167 | 0.003 | CN(C(=O)c1cc2c3c(c(N)nc2cc1Cl)COC3)[C@@H]1COc2cc(C#Cc3cnc4cnn(C)c4c3)ccc21 [Compound 76A, (S)-4-amino-7-chloro-N-methyl-N-(6-((1-methyl-1H-pyrazolo[4,3-b]pyridin-6-yl)ethynyl)-2,3-dihydrobenzofuran-3-yl)-1,3-dihydrofuro[3,4-c]quinoline-8-carboxamide] | 56
18 | 0.304 | 0.002 | [2H]C([2H])([2H])N(C(=O)c1cc2c(cc1F)nc(N)c1cnn(C)c12)[C@@H]1COc2cc(C#Cc3cnn(C)c3)ccc21 [Compound 79A, (S)-4-amino-7-fluoro-1-methyl-N-(methyl-D3)-N-(6-((1-methyl-1H-pyrazol-4-yl)ethynyl)-2,3-dihydrobenzofuran-3-yl)-1H-pyrazolo[4,3-c]quinoline-8-carboxamide] | 152
19 | 0.122 | 0.0027 | Cc1cn(C)nc1C#Cc1ccc2c(c1)OC[C@H]2N(C)C(=O)c1cc2c(cc1Cl)nc(N)c1cnn(C)c12 [Compound 81A, (S)-4-amino-7-chloro-N-(6-((1,4-dimethyl-1H-pyrazol-3-yl)ethynyl)-2,3-dihydrobenzofuran-3-yl)-N,1-dimethyl-1H-pyrazolo[4,3-c]quinoline-8-carboxamide] | 45
20 | 0.062 | 0.001 | Cc1cc2nc(N)c3cnn(C)c3c2cc1C(=O)N(C)[C@@H]1COc2cc(C#Cc3cnn(C(F)F)c3)ccc21 [Compound 83A] | 62
21 | 0.143 | 0.0026 | CN(C(=O)c1cc2c(cc1F)nc(N)c1cnn(C)c12)[C@@H]1COc2cc(C#Cc3cnc4n3CCC4)ccc21 [Compound 84A, (S)-4-amino-N-(6-((6,7-dihydro-5H-pyrrolo[1,2-a]imidazol-3-yl)ethynyl)-2,3-dihydrobenzofuran-3-yl)-7-fluoro-N,1-dimethyl-1H-pyrazolo[4,3-c]quinoline-8-carbo xamide] | 55
22 | 0.165 | 0.003 | CN(C(=O)c1cc2c(cc1F)nc(N)c1cnn(C)c12)C1COCc2cc(C#Cc3cnn(C4CC4)c3)ccc21 (stereo not drawn) [Compound 85, 4-amino-N-(7-((1-cyclopropyl-1H-pyrazol-4-yl)ethynyl)isochroman-4-yl)-7-fluoro -N,1-dimethyl-1H-pyrazolo[4,3-c]quinoline-8-carboxamide] | 55
